Test results as given in PubChem BioAssay (NCI).
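Compound exposure: 48 hours, 5 concentrations, 96-well plates. TGI: total growth inhibition.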

Experiments:
Test in all cases: DTP human tumour cell line panel, 48 h
[1] = system: HCC-2998 colon
[2] = system: CAKI-1 renal
[3] = system: 786-0 renal
[4] = system: HT29 colon
[5] = system: HL-60(TB) leukemia
[6] = system: DMS 114 small cell lung
[7] = system: RXF 393 renal
[8] = system: SNB-75 CNS
[9] = system: SK-OV-3 ovarian
[10] = system: HOP-18 NSCLC
[11] = system: SNB-19 CNS
[12] = system: HOP-92 NSCLC
[13] = system: SK-MEL-2 melanoma
[14] = system: SW-620 colon
[15] = system: HCT-116 colon
[16] = system: TK-10 renal
[17] = system: OVCAR-5 ovarian
[18] = system: SF-295 CNS
[19] = system: M14 melanoma
[20] = system: M19-MEL melanoma
[21] = system: KM20L2 colon
[22] = system: XF 498 CNS
[23] = system: DMS 273 small cell lung
[24] = system: NCI-H23 lung
[25] = system: SNB-78 CNS
[26] = system: A498 renal
[27] = system: DLD-1 colon
[28] = system: HCT-15 colon
[29] = system: SK-MEL-5 melanoma
[30] = system: OVCAR-8 ovarian
[31] = system: UACC-62 melanoma
[32] = system: SN12C renal
[33] = system: SF-539 CNS
[34] = system: NCI-H460 lung
[35] = system: NCI-H522 lung
[36] = system: OVCAR-4 ovarian
[37] = system: IGROV1 ovarian
[38] = system: UO-31 renal
[39] = system: OVCAR-3 ovarian
[40] = system: UACC-257 melanoma
[41] = system: ACHN renal
[42] = system: SF-268 CNS
[43] = system: MALME-3M melanoma
[44] = system: KM12 colon
[45] = system: NCI-H226 lung
[46] = system: MOLT-4 leukemia
[47] = system: EKVX NSCLC
[48] = system: HOP-62 NSCLC
[49] = system: COLO 205 colon
[50] = system: A549 NSCLC
[51] = system: LXFL 529 NSCLC
[52] = system: SK-MEL-28 melanoma
[53] = system: U251 CNS
[54] = system: LOX IMVI melanoma
[55] = system: SR leukemia
[56] = system: MCF7 breast
[57] = system: HS 578T breast
[58] = system: MDA-N
[59] = system: DU-145 prostate
[60] = system: PC-3 prostate
[61] = system: RPMI-8226 leukemia
[62] = system: MDA-MB-231 breast
[63] = system: MDA-MB-435
[64] = system: T-47D breast
[65] = system: NCI/ADR-RES ovarian
[66] = system: K-562 leukemia
[67] = system: BT-549 breast

## ClCCCCOC1CCCCO1 (stereo unspecified)
[1]
  TGI: > 100 µM
[2]
  TGI: > 100 µM
[3]
  TGI: > 100 µM
[4]
  TGI: > 100 µM
[5]
  TGI: > 100 µM
[6]
  TGI: > 100 µM
[7]
  TGI: > 100 µM
[8]
  TGI: > 100 µM
[9]
  TGI: > 100 µM
[10]
  TGI: > 100 µM
[11]
  TGI: > 100 µM
[12]
  TGI: > 100 µM
[13]
  TGI: > 100 µM
[14]
  TGI: > 100 µM
[15]
  TGI: > 100 µM
[16]
  TGI: > 100 µM
[17]
  TGI: > 100 µM
[18]
  TGI: > 100 µM
[19]
  TGI: > 100 µM
[20]
  TGI: > 100 µM
[21]
  TGI: > 100 µM
[22]
  TGI: > 100 µM
[23]
  TGI: > 100 µM
[24]
  TGI: > 100 µM
[25]
  TGI: > 100 µM
[26]
  TGI: > 100 µM
[27]
  TGI: > 100 µM
[28]
  TGI: > 100 µM
[29]
  TGI: > 100 µM
[30]
  TGI: > 100 µM
[31]
  TGI: > 100 µM
[32]
  TGI: > 100 µM
[33]
  TGI: > 100 µM
[34]
  TGI: > 100 µM
[35]
  TGI: > 100 µM
[36]
  TGI: > 100 µM
[37]
  TGI: > 100 µM
[38]
  TGI: > 100 µM
[39]
  TGI: > 100 µM
[40]
  TGI: > 100 µM
[41]
  TGI: > 100 µM
[42]
  TGI: > 100 µM
[43]
  TGI: > 100 µM
[44]
  TGI: > 100 µM
[45]
  TGI: > 100 µM
[46]
  TGI: > 100 µM
[47]
  TGI: > 100 µM
[48]
  TGI: > 100 µM
[49]
  TGI: > 100 µM
[50]
  TGI: > 100 µM
[51]
  TGI: > 100 µM
[52]
  TGI: > 100 µM
[53]
  TGI: > 100 µM

## C[N+](C)(C)CCN[N+]1(C)CCCc2ccccc21 (stereo unspecified)
[1]
  TGI: > 100 µM
[2]
  TGI: > 100 µM
[54]
  TGI: > 100 µM
[3]
  TGI: > 100 µM
[4]
  TGI: > 100 µM
[5]
  TGI: > 100 µM
[55]
  TGI: > 100 µM
[7]
  TGI: > 100 µM
[8]
  TGI: > 100 µM
[9]
  TGI: > 100 µM
[11]
  TGI: > 100 µM
[56]
  TGI: > 100 µM
[12]
  TGI: > 100 µM
[13]
  TGI: > 100 µM
[14]
  TGI: > 100 µM
[15]
  TGI: > 100 µM
[16]
  TGI: > 100 µM
[17]
  TGI: > 100 µM
[18]
  TGI: > 100 µM
[19]
  TGI: > 100 µM
[24]
  TGI: > 100 µM
[26]
  TGI: 35.1 µM
[28]
  TGI: > 100 µM
[57]
  TGI: > 100 µM
[58]
  TGI: > 100 µM
[29]
  TGI: > 100 µM
[30]
  TGI: > 100 µM
[31]
  TGI: > 100 µM
[59]
  TGI: > 100 µM
[60]
  TGI: > 100 µM
[32]
  TGI: > 100 µM
[61]
  TGI: 92.9 µM
[33]
  TGI: > 100 µM
[34]
  TGI: > 100 µM
[35]
  TGI: 40.3 µM
[36]
  TGI: > 100 µM
[37]
  TGI: > 100 µM
[62]
  TGI: > 100 µM
[38]
  TGI: > 100 µM
[39]
  TGI: > 100 µM
[40]
  TGI: > 100 µM
[63]
  TGI: > 100 µM
[41]
  TGI: > 100 µM
[64]
  TGI: > 100 µM
[42]
  TGI: > 100 µM
[43]
  TGI: 50.3 µM
[65]
  TGI: > 100 µM
[44]
  TGI: > 100 µM
[45]
  TGI: > 100 µM
[46]
  TGI: 90.6 µM
[47]
  TGI: > 100 µM
[48]
  TGI: > 100 µM
[49]
  TGI: > 100 µM
[50]
  TGI: > 100 µM
[66]
  TGI: > 100 µM
[52]
  TGI: > 100 µM
[67]
  TGI: > 100 µM
[53]
  TGI: > 100 µM
